Some test systems named below: OVCAR-3; DU-145; CAKI-1; TK-10; SK-MEL-2; EKVX; Hs-578T; A549; OVCAR-5; NCI-H460; NCI-H23; OVCAR-8; RPMI-8226; K562; SN12C; MCF7; SR; MOLT-4; SF-295.
Holding throughout (test): inhibition of tumour cell growth, NCI panel, 48 h

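The compound was tested at five concentrations on cells cultured in 96-well plates, with a 48-hour exposure period. GI50: concentration for 50% inhibition of growth.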 Calls of active or inactive are those of the source. Cut-off read from the data, not from the text of the source: active = GI50 up to about 1.1 µM and inactive = higher. Bounds are passed on as bounds.

For the compound `C=CCNC1=C2C[C@@H](C)C[C@@H](OC)[C@H](OC(=O)CN(C)C)[C@H](C)/C=C(\C)[C@@H](OC(N)=O)[C@H](OC)/C=C\C=C(/C)C(=O)NC(=CC1=O)C2=O`, the GI50 in the experiment with OVCAR-3 is 0.286 µM (active); with DU-145 it was < 0.01 µM (active); in the experiment on CAKI-1, 1.29 µM (inactive); in the experiment on TK-10, 0.0543 µM (active); in the experiment on SK-MEL-2 it was 0.0608 µM (active); in the experiment with EKVX it was 1.28 µM (inactive). The GI50 was 13.3 µM (inactive) in the experiment on Hs-578T; 0.0562 µM (active) with A549; 10.3 µM (inactive) in the experiment on OVCAR-5; 0.0479 µM (active) in the experiment with NCI-H460; 0.043 µM (active) in the experiment with NCI-H23; 0.163 µM (active) in the experiment on OVCAR-8. Moreover, the GI50 in the experiment with RPMI-8226 is 0.832 µM (active); in the experiment with K562, 0.151 µM (active); in the experiment on SN12C, 0.0689 µM (active); in the experiment on MCF7, 0.0245 µM (active); with SR, < 0.0113 µM (active); in the experiment on MOLT-4, 1.43 µM (inactive). Also, in the experiment with SF-295, the GI50 was 0.128 µM (active).
Take `C=C1C(=O)O[C@@H]2C[C@@]3(C)CCCC(=C)[C@@H]3C[C@H]12.C=C1C(=O)O[C@@H]2C[C@@]3(C)CCC[C@H](C)C3=C[C@H]12`: the GI50 with OVCAR-3 is 1.61 µM (inactive); in the experiment with DU-145, 2.77 µM (inactive); in the experiment on CAKI-1 it was 1.69 µM (inactive); in the experiment with TK-10, 2.88 µM (inactive); in the experiment with SK-MEL-2 it was 2.09 µM (inactive); with EKVX it was 4.78 µM (inactive). Further, the GI50 in the experiment on Hs-578T was 2.92 µM (inactive); with A549 it was 5.12 µM (inactive); in the experiment on OVCAR-5 it was 4.82 µM (inactive); with NCI-H460, 3.75 µM (inactive); with NCI-H23 it was 2 µM (inactive); with OVCAR-8 it was 1.6 µM (inactive). In addition, the GI50 in the experiment with RPMI-8226 was 1.12 µM (inactive); in the experiment on K562 it was 2.04 µM (inactive); in the experiment with SN12C, 1.69 µM (inactive); in the experiment on MCF7, 1.73 µM (inactive); with SR, 0.494 µM (active); in the experiment on MOLT-4, 1.34 µM (inactive). Further, the GI50 in the experiment on SF-295 is 11.5 µM (inactive).
`S=c1[nH]c(=S)c2cc(Sc3ccc4[nH]c(=S)[nH]c(=S)c4c3)ccc2[nH]1`: the GI50 in the experiment on OVCAR-3 was 36.1 µM (inactive); in the experiment with DU-145, 62.4 µM (inactive); in the experiment with CAKI-1, 36.6 µM (inactive); in the experiment on TK-10 it was 25.1 µM (inactive); in the experiment with SK-MEL-2, 45.1 µM (inactive); in the experiment with EKVX, 42.2 µM (inactive). The GI50 is 22 µM (inactive) with Hs-578T; 59.7 µM (inactive) with A549; > 100 µM (inactive) in the experiment with OVCAR-5; 45.5 µM (inactive) in the experiment with NCI-H460; 28 µM (inactive) in the experiment with NCI-H23; 22 µM (inactive) in the experiment on OVCAR-8. Also, the GI50 with RPMI-8226 is 17.7 µM (inactive); in the experiment with K562, 49.1 µM (inactive); with SN12C it was 40 µM (inactive); in the experiment on MCF7, 59.6 µM (inactive); in the experiment with SR, 17.1 µM (inactive); in the experiment on MOLT-4, 46.8 µM (inactive). For the same compound, the GI50 in the experiment on SF-295 is 22 µM (inactive).
For the compound `O=C(/C=C/c1ccccc1)c1cc(Br)ccc1O`, the GI50 was 18 µM (inactive) in the experiment on OVCAR-3; 14.9 µM (inactive) in the experiment with DU-145; 15.8 µM (inactive) in the experiment on CAKI-1; 17.6 µM (inactive) in the experiment on TK-10; 21.4 µM (inactive) with SK-MEL-2; 13.8 µM (inactive) with EKVX. Besides, the GI50 in the experiment with Hs-578T was 21.2 µM (inactive); in the experiment with A549, 24 µM (inactive); with OVCAR-5 it was 22.3 µM (inactive); in the experiment on NCI-H460, 17.9 µM (inactive); with NCI-H23, 16 µM (inactive); in the experiment on OVCAR-8, 16 µM (inactive). Moreover, the GI50 in the experiment on RPMI-8226 was 6.84 µM (inactive); in the experiment with K562, 4.28 µM (inactive); in the experiment on SN12C, 15.1 µM (inactive); with MCF7, 10.8 µM (inactive); in the experiment with SR, 2.09 µM (inactive); in the experiment with MOLT-4, 15.2 µM (inactive). The GI50 in the experiment with SF-295 is 16.9 µM (inactive).
Consider `C/C(=C\c1csc(C)n1)[C@@H]1C[C@@H]2O[C@@H]2CCC[C@H](C)[C@H](O)[C@@H](C)C(=O)C(C)(C)[C@@H](O)CC(=O)O1` [EPOTHILONE A], for which the GI50 with OVCAR-3 is < 0.0001 µM (active); with DU-145 it was < 0.0001 µM (active); in the experiment with CAKI-1, < 0.0001 µM (active); with TK-10 it was 0.0167 µM (active); with SK-MEL-2, < 0.0001 µM (active); in the experiment with EKVX, < 0.0001 µM (active). Moreover, the GI50 in the experiment on Hs-578T, in the experiment on A549, in the experiment on OVCAR-5, in the experiment with NCI-H460, in the experiment with NCI-H23 and in the experiment on OVCAR-8 was < 0.0001 µM (active) in each case. In addition, the GI50 in the experiment with RPMI-8226, in the experiment with K562, in the experiment with SN12C, in the experiment with MCF7, in the experiment with SR and in the experiment on MOLT-4 was < 0.0001 µM (active) throughout. In the experiment on SF-295, the GI50 was < 0.0001 µM (active).
Turning to `O=C(N/N=C/C=C/c1ccccc1)c1ccccc1Nc1ccccc1C(=O)N/N=C/C=C/c1ccccc1`, the GI50 is > 100 µM (inactive) in the experiment with OVCAR-3; > 100 µM (inactive) in the experiment with DU-145; > 100 µM (inactive) in the experiment with CAKI-1; > 100 µM (inactive) in the experiment with TK-10; 59.4 µM (inactive) with SK-MEL-2; > 100 µM (inactive) in the experiment with EKVX. The GI50 with Hs-578T was 41.1 µM (inactive); with A549 it was > 100 µM (inactive); in the experiment on OVCAR-5, > 100 µM (inactive); in the experiment on NCI-H460 it was 26.5 µM (inactive); in the experiment with NCI-H23, > 100 µM (inactive); in the experiment with OVCAR-8, > 100 µM (inactive). Further, the GI50 in the experiment with RPMI-8226 was > 100 µM (inactive); with K562 it was > 100 µM (inactive); in the experiment with SN12C, > 100 µM (inactive); in the experiment on MCF7 it was > 100 µM (inactive); with SR it was 12.8 µM (inactive); in the experiment with MOLT-4 it was 1.92 µM (inactive). In addition, the GI50 with SF-295 is 27.5 µM (inactive).
Turning to `Nc1nc(OCC2CCCCC2)c2nc[nH]c2n1`, the GI50 with OVCAR-3 was 9.25 µM (inactive); with DU-145 it was 9.77 µM (inactive); in the experiment with CAKI-1 it was 7.24 µM (inactive); with TK-10, 7.35 µM (inactive); in the experiment with SK-MEL-2 it was 4.5 µM (inactive); in the experiment with EKVX, 19.4 µM (inactive). In addition, the GI50 in the experiment with Hs-578T was 8.39 µM (inactive); in the experiment on A549 it was 15.5 µM (inactive); with OVCAR-5, 13.6 µM (inactive); in the experiment with NCI-H460, 8.38 µM (inactive); in the experiment with NCI-H23, 17.7 µM (inactive); with OVCAR-8, 16.5 µM (inactive). The GI50 with RPMI-8226 is 11.1 µM (inactive); with K562, 29.1 µM (inactive); in the experiment on SN12C, 10.2 µM (inactive); in the experiment on MCF7, 0.957 µM (active); in the experiment with SR, 6.85 µM (inactive); in the experiment on MOLT-4, 8.47 µM (inactive). Also, the GI50 in the experiment with SF-295 is 17.7 µM (inactive).
Turning to `COC(=O)C1=C(C)NC(CF)=C(C(=O)OC)C1c1cccc2c(=O)c3ccccc3oc12` (stereo not given), the GI50 with OVCAR-3 was 4.85 µM (inactive); in the experiment on DU-145, 90.4 µM (inactive); in the experiment on CAKI-1 it was 11.9 µM (inactive); in the experiment on TK-10 it was 35.8 µM (inactive); with SK-MEL-2, 20.4 µM (inactive); with EKVX, 19.1 µM (inactive). In addition, the GI50 was 9.62 µM (inactive) in the experiment with Hs-578T; 9.46 µM (inactive) with A549; > 100 µM (inactive) in the experiment on OVCAR-5; 4.48 µM (inactive) with NCI-H460; 36.8 µM (inactive) in the experiment on NCI-H23; 19.9 µM (inactive) in the experiment with OVCAR-8. Besides, the GI50 in the experiment on RPMI-8226 was 69.3 µM (inactive); with K562, 4.06 µM (inactive); with SN12C, 4.63 µM (inactive); in the experiment with MCF7, 4.94 µM (inactive); with SR, 9.4 µM (inactive); in the experiment on MOLT-4, 5.89 µM (inactive). Moreover, the GI50 with SF-295 was 3.31 µM (inactive).
For `O=[N+]([O-])/C(C(Cl)=C(Cl)Cl)=C(/Cl)Sc1ccccc1`, the GI50 in the experiment on OVCAR-3 is 2.05 µM (inactive); in the experiment on DU-145, 3.32 µM (inactive); in the experiment with CAKI-1, 2.51 µM (inactive); in the experiment on TK-10, 2.67 µM (inactive); with SK-MEL-2 it was 13.3 µM (inactive); in the experiment on EKVX, 15.6 µM (inactive). For the same compound, the GI50 with Hs-578T is 3.15 µM (inactive); in the experiment on A549 it was 3.6 µM (inactive); in the experiment with OVCAR-5, 2 µM (inactive); in the experiment on NCI-H460, 17.1 µM (inactive); with NCI-H23, 1.77 µM (inactive); with OVCAR-8 it was 0.255 µM (active). Further, the GI50 in the experiment with RPMI-8226 is 0.306 µM (active); in the experiment on K562, 0.59 µM (active); with SN12C it was 1.81 µM (inactive); in the experiment on MCF7, 1.43 µM (inactive); with SR, 0.378 µM (active); with MOLT-4, 0.361 µM (active). The GI50 in the experiment on SF-295 was 20 µM (inactive).
Take `O=C(O)C1=C/C(=C(/c2ccccc2)c2cc(C(=O)O)c(O)c3ccccc23)c2ccccc2C1=O`: the GI50 in the experiment on OVCAR-3, in the experiment with DU-145, with CAKI-1, in the experiment on TK-10, in the experiment on SK-MEL-2 and in the experiment on EKVX was > 100 µM (inactive) each time. The GI50 in the experiment with Hs-578T, in the experiment on A549, in the experiment with OVCAR-5, in the experiment with NCI-H460, in the experiment with NCI-H23 and in the experiment with OVCAR-8 was > 100 µM (inactive) each time. For the same compound, the GI50 with RPMI-8226, with K562, in the experiment with SN12C, in the experiment on MCF7, in the experiment with SR and in the experiment with MOLT-4 was > 100 µM (inactive) throughout. The GI50 in the experiment with SF-295 is > 100 µM (inactive).

The values are drawn from ChEMBL document CHEMBL1201862, “PubChem BioAssay data set” (2004).
